Data on eleven compounds can be found in publication PMC9671100 (RSC Advances, 2022).

Experiment [1] concerns the target AChE (from Electrophorus electricus) (Electrophorus electricus, UniProt O42275). Kind of experiment: Anticholinesterase assay. In kind it is biochemical.
Another experiment concerns the target BChE (from equine serum) (Equus caballus, UniProt P81908). As to the kind of experiment: Anticholinesterase assay. Conditions: for IC50: BChE IC50, IC50 ± SEM, Ellman method, 30 min incubation, triplicate. In kind it is biochemical. Background: Ellman's reagent forms a yellow product with free thiols.
Experiment [2] can be described thus: DPPH radical scavenging activity. The conditions noted are these: 517 nm, 5 min at room temperature. For orientation: The DPPH test is a chemical assay of radical scavenging.
The nature of experiment [3]: ABTS radical scavenging activity. The conditions noted are these: for ABTS EC50: 732 nm, 6 min; for Fold = IC50 of ascorbic acid/IC50 of compounds 5a–p: ratio of the ABTS values relative to ascorbic acid.

Where “and” joins values, the source holds several entries; their conditions need not be identical. Equal entries are not always repeated.

BChE (from equine serum), sequence (P81908 whole entry): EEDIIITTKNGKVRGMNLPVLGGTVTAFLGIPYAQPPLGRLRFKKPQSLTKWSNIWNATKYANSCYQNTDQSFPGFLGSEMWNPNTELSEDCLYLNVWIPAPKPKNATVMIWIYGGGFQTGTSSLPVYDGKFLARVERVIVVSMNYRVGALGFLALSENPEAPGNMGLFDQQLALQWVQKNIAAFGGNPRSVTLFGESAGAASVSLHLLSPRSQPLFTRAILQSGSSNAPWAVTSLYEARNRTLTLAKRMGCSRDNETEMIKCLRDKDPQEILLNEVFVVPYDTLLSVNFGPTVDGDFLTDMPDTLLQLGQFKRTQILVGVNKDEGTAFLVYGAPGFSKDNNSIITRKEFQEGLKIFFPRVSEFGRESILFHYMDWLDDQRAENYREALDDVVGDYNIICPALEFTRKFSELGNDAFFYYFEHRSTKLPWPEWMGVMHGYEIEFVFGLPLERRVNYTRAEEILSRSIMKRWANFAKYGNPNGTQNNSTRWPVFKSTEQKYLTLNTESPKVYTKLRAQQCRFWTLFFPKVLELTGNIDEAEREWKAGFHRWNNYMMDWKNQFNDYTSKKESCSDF
AChE (from Electrophorus electricus), sequence (O42275 24-633): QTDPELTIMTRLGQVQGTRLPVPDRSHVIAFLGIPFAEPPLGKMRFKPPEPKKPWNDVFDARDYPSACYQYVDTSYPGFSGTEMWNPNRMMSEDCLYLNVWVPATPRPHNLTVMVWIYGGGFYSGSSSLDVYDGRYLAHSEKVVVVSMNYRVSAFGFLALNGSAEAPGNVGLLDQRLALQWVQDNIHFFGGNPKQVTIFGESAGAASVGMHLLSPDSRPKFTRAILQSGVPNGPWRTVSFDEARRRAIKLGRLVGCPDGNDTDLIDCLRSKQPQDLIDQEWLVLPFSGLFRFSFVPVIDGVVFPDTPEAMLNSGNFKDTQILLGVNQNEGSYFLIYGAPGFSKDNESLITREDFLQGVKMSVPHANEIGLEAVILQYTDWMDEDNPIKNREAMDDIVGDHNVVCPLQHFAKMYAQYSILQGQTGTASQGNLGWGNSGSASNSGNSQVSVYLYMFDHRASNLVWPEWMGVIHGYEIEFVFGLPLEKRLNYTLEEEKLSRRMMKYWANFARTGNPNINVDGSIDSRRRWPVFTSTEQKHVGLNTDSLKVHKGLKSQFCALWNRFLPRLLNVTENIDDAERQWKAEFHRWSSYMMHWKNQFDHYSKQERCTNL

For orientation: IC50 means the point on the concentration scale where inhibition reaches its midpoint. A high value points to weaker potency. On to `Cc1nn(-c2ccccc2)c2nc3c(cc12)-c1nc(N)c(C#N)c(-c2ccccc2)c1CC3` [5a, 2-Amino-10-methyl-4,8-diphenyl-6,8-dihydro-5H-pyrazolo[3,4-j][1,7]phenanthroline-3-carbonitrile], for which the IC50 was 259.87 ± 0.03 µM in experiment [1] and above 875 µM on BChE (from equine serum). Moreover, the “DPPH EC50” value in experiment [2] is above 100 µg/mL. Besides, the “ABTS EC50” value in experiment [3] is above 100 µg/mL.

As for `Cc1ccc(-c2c(C#N)c(N)nc3c2CCc2nc4c(cc2-3)c(C)nn4-c2ccccc2)cc1` [5b, 2-Amino-10-methyl-8-phenyl-4-(p-tolyl)-6,8-dihydro-5H-pyrazolo[3,4-j][1,7]phenanthroline-3-carbonitrile], the IC50 against BChE (from equine serum) was above 847 µM. Also, the “DPPH EC50” value in experiment [2] was above 100 µg/mL. For the same compound, in experiment [3], the “ABTS EC50” value came out at 98.77 µg/mL and the “Fold = IC50 of ascorbic acid/IC50 of compounds 5a–p” value (from here on “Fold = IC50 … of compounds 5a–p”) amounted to 0.28.

`Cc1nn(-c2ccccc2)c2nc3c(cc12)-c1nc(N)c(C#N)c(-c2ccc(Cl)cc2)c1CC3` [5d, 2-Amino-4-(4-chlorophenyl)-10-methyl-8-phenyl-6,8-dihydro-5H-pyrazolo[3,4-j][1,7]phenanthroline-3-carbonitrile] returned an IC50 on BChE (from equine serum) above 810 µM. In experiment [2], the “DPPH EC50” value was above 100 µg/mL. In experiment [3], the “ABTS EC50” value was above 100 µg/mL.

As to `Cc1nn(-c2ccccc2)c2nc3c(cc12)-c1nc(N)c(C#N)c(-c2ccc([N+](=O)[O-])cc2)c1CC3` [5e, 2-Amino-10-methyl-4-(4-nitrophenyl)-8-phenyl-6,8-dihydro-5H-pyrazolo[3,4-j][1,7]phenanthroline-3-carbonitrile], the IC50 in experiment [1] is 191.28 ± 0.015 µM; against BChE (from equine serum), at least 375 µM. Besides, the “DPPH EC50” value in experiment [2] is 26.71 µg/mL. Moreover, the “ABTS EC50” value in experiment [3] is 11.51 µg/mL. Also, the “Fold = IC50 … of compounds 5a–p” value in experiment [3] was 2 and 2.40.

In experiment [1], `Cc1nn(-c2ccccc2)c2nc3c(cc12)-c1nc(N)c(C#N)c(-c2cc4ccccc4nc2Cl)c1CC3` [5f, 2-Amino-4-(2-chloroquinolin-3-yl)-10-methyl-8-phenyl-6,8-dihydro-5H-pyrazolo[3,4-j][1,7]phenanthroline-3-carbonitrile] displayed an IC50 of 135.33 ± 0.04 µM. This compound also showed an IC50 against BChE (from equine serum) of at least 375 µM. Besides, the “DPPH EC50” value in experiment [2] was above 100 µg/mL. In addition, in experiment [3], the “ABTS EC50” value turned out to be 3.10 µg/mL; the “Fold = IC50 … of compounds 5a–p” value was 9 and 8.91.

Regarding `Cc1nn(-c2ccccc2)c2nc3c(cc12)-c1nc(N)c(C#N)c(-c2ccc(O)cc2)c1CC3` [5g, 2-Amino-4-(4-hydroxyphenyl)-10-methyl-8-phenyl-6,8-dihydro-5H-pyrazolo[3,4-j][1,7]phenanthroline-3-carbonitrile], the “DPPH EC50” value in experiment [2] was above 100 µg/mL. Also, in experiment [3], the “ABTS EC50” value was below 3 µg/mL and the “Fold = IC50 … of compounds 5a–p” value is on record as “more than nine times”.

Turning to `Cc1nn(-c2ccccc2)c2nc3c(cc12)-c1nc(N)c(C#N)c(-c2ccc(C#N)cc2)c1CC3` [5h, 2-Amino-4-(4-cyanophenyl)-10-methyl-8-phenyl-6,8-dihydro-5H-pyrazolo[3,4-j][1,7]phenanthroline-3-carbonitrile], the half-maximal inhibitory concentration (IC50) in experiment [1] is 85.48 ± 0.14 µM; on BChE (from equine serum), at least 375 µM. In addition, the “DPPH EC50” value in experiment [2] is above 100 µg/mL. Also, the “ABTS EC50” value in experiment [3] was above 100 µg/mL.

As for `COc1cc(-c2c(C#N)c(N)nc3c2CCc2nc4c(cc2-3)c(C)nn4-c2ccccc2)cc(OC)c1OC` [5j, 2-Amino-10-methyl-8-phenyl-4-(3,4,5-trimethoxyphenyl)-6,8-dihydro-5H-pyrazolo[3,4-j][1,7]phenanthroline-3-carbonitrile], the IC50 is 224.54 ± 0.018 µM in experiment [1] and at least 375 µM against BChE (from equine serum). For the same compound, in experiment [2], the “DPPH EC50” value was above 100 µg/mL. For the same compound, the “ABTS EC50” value in experiment [3] is above 100 µg/mL.

For the compound `Cc1nn(-c2ccccc2)c2nc3c(cc12)-c1nc(N)c(C#N)c(-c2ccc4c(c2)OCO4)c1CC3` [5l, 2-Amino-4-(benzo[d][1,3]dioxol-5-yl)-10-methyl-8-phenyl-6,8-dihydro-5H-pyrazolo[3,4-j][1,7]phenanthroline-3-carbonitrile], the IC50 was 167.94 ± 0.04 µM in experiment [1] and 119 µM against BChE (from equine serum). Besides, the “times less potent than galantamine against BChE” value at BChE (from equine serum) (IC50 ratio versus galantamine) was 15. Moreover, the “DPPH EC50” value in experiment [2] is above 100 µg/mL. Moreover, in experiment [3], the “ABTS EC50” value was above 100 µg/mL.

For `CCOc1nc2c(c(-c3ccccc3)c1C#N)CCc1nc3c(cc1-2)c(C)nn3-c1ccccc1` [5p, 2-Ethoxy-10-methyl-4,8-diphenyl-6,8-dihydro-5H-pyrazolo[3,4-j][1,7]phenanthroline-3-carbonitrile], the IC50 in experiment [1] is 329.67 ± 0.01 µM; at BChE (from equine serum), at least 375 µM. The “DPPH EC50” value in experiment [2] was above 100 µg/mL. Further, the “ABTS EC50” value in experiment [3] is above 100 µg/mL.

For `O=C1O[C@H]([C@@H](O)CO)C(O)=C1O` [Ascorbic acid, reference compound], the “DPPH EC50” value in experiment [2] is 1.5 ± 0.2 µg/mL. For the same compound, in experiment [3], the “ABTS EC50” value came to 27.62 ± 3.5 µg/mL and the “Fold = IC50 … of compounds 5a–p” value is 1.
